Measured values from US6670355B2, “Method of treating cardiovascular disease” (Wyeth, priority 2000, dated 2003).
Several values for one entry are separate records, joined by “and”; a condition that tells them apart may be missing. Identical values can stand only once.

Test system: ApoE knockout (EKO) mice
Test: standard pharmacological test procedure for atherosclerosis in ApoE knockout (EKO) mice: plasma lipids and aortic arch lesions
Format: in vivo
Details: for Aortic Atherosclerosis (% lesion involvement as assessed by lpipd staining): aortic arch, Oil Red O; for Aortic Atherosclerosis (% lesion involvement as assessed by lpipd staining) / HDL-C / LDL-C / Total Cholesterol / Triglycerides / VLDL-C: Western Diet, mean ± S.E.; for HDL-C / LDL-C / Total Cholesterol / Triglycerides / VLDL-C: plasma
From the text: The ability of the rapamycins of this invention to treat or inhibit cardiovascular disease or peripheral vascular disease was confirmed in a standard pharmacological test procedure using ApoE knockout (EKO) mice, which are a well accepted animal model of human atherosclerosis. In this test procedure, rapamycin was used a representative example of a rapamycin of this invention. The procedure used, and results obtained are briefly summarized below.
Male EKO mice, 4-6 weeks of age, were housed in shoe-box cages and were allowed ad lib food and water. The animals were randomized by weight into 5 groups (N=12-15 mice per group) and were fed Purina Rodent Chow for the first week of the study. Also during this period as well as the remaining 12 weeks of the study, the animals were dosed every 2 days with 0, 1, 2, 4 or 8 mg/kg rapamycin s.c. using 2% Tween-80, 1% carboxymethyl cellulose as the vehicle and Control. The animal diet was switched to a casein-based Western Diet for week 2 to week 13 of the study. At the end of the study period, the animals were euthanized, plasma samples obtained, and the hearts perfused first with saline, then with 10% formalin. Total cholesterol and triglycerides were determined using enzymatic methods with commercially-available kits from Boehringer Mannheim and Wako Biochemicals, respectively, and the Boehringer Mannheim Hitachii 911 Analyzer (Boehringer Mannheim Diagnostic Laboratory Systems, Indianapolis, Ind.). Separation and quantification of plasma lipoproteins were performed using FPLC size fractionation. Briefly, […] of serum was filtered and injected into two Superose 6 columns (Amersham Pharmacia Biotech, UK, Ltd) connected in series and eluted at a constant flow rate with 1 mM sodium EDTA and 0.15 M NaCl. Areas of each curve representing VLDL, LDL and HDL were integrated using Millennium software (Waters Technologies Corporation), and each lipoprotein fraction was quantified by multiplying the Total Cholesterol value by the relative percent area of each respective peak. The aortas were carefully isolated and remained in the formalin fixative for 48-72 hours before handling. Atherosclerotic lesions were identified by Oil Red O staining, a well accepted procedure for identifying accumulation of neutral lipids such as cholesterols and triglycerides. The vessels were destained, and then imaged using a Nikon SMU800 microscope fitted with a Sony 3CCD video camera system in concert with IMAQ Configuration Utility (National Instrument) as the image capturing software. The lesions were quantified along the aortic arch using a custom threshold utility software package designed by Robert Coll (Coleman Technologies). Automated lesion assessment was performed on the vessels using the threshold function of the program, specifically on the region contained within the aortic arch from the proximal edge of the Right Common Carotid artery to the distal edge of the Left Subclavian artery. Aortic atherosclerosis data were expressed as percent lesion (lipid) involvement strictly within this defined luminal area. Statistical significance between the Control and treated groups was determined using the Dunnett's Test at 1% significance level (p<0.01).

With `CO[C@H]1C[C@@H]2CC[C@@H](C)[C@@](O)(O2)C(=O)C(=O)N2CCCC[C@H]2C(=O)O[C@H]([C@H](C)C[C@@H]2CC[C@@H](O)[C@H](OC)C2)CC(=O)[C@H](C)/C=C(\C)[C@@H](O)[C@@H](OC)C(=O)[C@H](C)C[C@H](C)/C=C/C=C/C=C/1C` [rapamycin] the “area of aorta containing fat” value (1, 2, 4, or 8-mg/kg qod for 12 weeks) was 12-16%, the “Aortic Atherosclerosis (% lesion involvement as assessed by lpipd staining)” value (1 mg/kg s.c. every 2 days, 1 mg/kg) was 21.6% and 21.6 ± 3.1 % and the “Aortic Atherosclerosis (% lesion involvement as assessed by lpipd staining)” value (2 mg/kg s.c. every 2 days, 2 mg/kg) was 14.9 ± 3.1 %. For the same compound, the “Aortic Atherosclerosis (% lesion involvement as assessed by lpipd staining)” value (4 mg/kg s.c. every 2 days, 4 mg/kg) was 16% and 16.4 ± 2.8 %, the “Aortic Atherosclerosis (% lesion involvement as assessed by lpipd staining)” value (8 mg/kg s.c. every 2 days, 8 mg/kg) was 12% and 12.03 ± 2.3 % and the “effect on VLDL-cholesterol” value (compared with control EKO mice) was “not significantly affecting”. For the same compound, the “effect on circulating plasma HDL-cholesterol” value (compared with control EKO mice) was “significantly (p<0.01) increased”, the “effect on circulating plasma LDL-cholesterol” value (compared with control EKO mice) was “significantly (p<0.01) increased” and the “effect on total cholesterol” value (compared with control EKO mice) was “not significantly affecting”. The effect on triglycerides (compared with control EKO mice) was “not significantly affecting”, the HDL-C (1 mg/kg s.c. every 2 days) was 23 ± 6 mg/dL and the LDL-C (1 mg/kg s.c. every 2 days) was 508 ± 18 mg/dL. For the same compound, the “Total Cholesterol” value (1 mg/kg s.c. every 2 days) was 1434 ± 35 mg/dL, the Triglycerides (1 mg/kg s.c. every 2 days) was 132 ± 16 mg/dL and the VLDL-C (1 mg/kg s.c. every 2 days) was 903 ± 34 mg/dL. The HDL-C (2 mg/kg s.c. every 2 days) was 31 ± 5 mg/dL, the LDL-C (2 mg/kg s.c. every 2 days) was 517 ± 18 mg/dL and the “Total Cholesterol” value (2 mg/kg s.c. every 2 days) was 1311 ± 80 mg/dL. The Triglycerides (2 mg/kg s.c. every 2 days) was 143 ± 20 mg/dL, the VLDL-C (2 mg/kg s.c. every 2 days) was 763 ± 64 mg/dL and the HDL-C (4 mg/kg s.c. every 2 days) was 38 ± 5 mg/dL. For the same compound, the LDL-C (4 mg/kg s.c. every 2 days) was 494 ± 10 mg/dL, the “Total Cholesterol” value (4 mg/kg s.c. every 2 days) was 1281 ± 58 mg/dL and the Triglycerides (4 mg/kg s.c. every 2 days) was 136 ± 12 mg/dL. The VLDL-C (4 mg/kg s.c. every 2 days) was 749 ± 58 mg/dL, the HDL-C (8 mg/kg s.c. every 2 days) was 49 ± 3 mg/dL and the LDL-C (8 mg/kg s.c. every 2 days) was 475 ± 21 mg/dL. For the same compound, the “Total Cholesterol” value (8 mg/kg s.c. every 2 days) was 1167 ± 75 mg/dL, the Triglycerides (8 mg/kg s.c. every 2 days) was 134 ± 9 mg/dL and the VLDL-C (8 mg/kg s.c. every 2 days) was 644 ± 58 mg/dL. The circulating total cholesterol (rapamycin treated animals, 1, 2, 4, or 8-mg/kg qod for 12 weeks) was 1300 to 1500 mg/dL and the “reduction in aortic atherosclerosis” value (rapamycin treated vs Control EKO mice) was “three-fold reduction”.
